Values quoted from earlier work as cited in patent publication US20120070594A1, “HYDROGENATED BISPHENOL-A-BASED POLYMERS AS SUBSTITUTES FOR BISPHENOL-A-BASED POLYMERS” (priority 2010, published 2012).

| SMILES | pKa | LD50 (rat) (rat) |
| --- | --- | --- |
| CC(C)(c1ccc(O)cc1)c1ccc(O)cc1 [BPA, 4,4′-(Propane-2,2-diyl)diphenol, reference compound] | 9.6 | – |
| CC(C)(C1CCC(O)CC1)C1CCC(O)CC1 (stereo not drawn) [HBPA, 4-[2-(4-hydroxycyclohexyl)propan-2-yl]cyclohexan-1-ol] | 17 | 5660 mg per kg |
